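Compound exposure: 48 hours, 5 concentrations, 96-well plates. At the GI50, growth is halved.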 Calls of active or inactive are those of the source. Rule as the data show it: active = GI50 up to about 1.1 µM and inactive = higher.
Experiments:
Experiment in all cases: inhibition of tumour cell growth, NCI panel, 48 h
ACHN = system: ACHN
BT-549 = system: BT-549
HCT-15 = system: HCT-15
HT-29 = system: HT-29
Hs-578T = system: Hs-578T
IGROV-1 = system: IGROV-1
K562 = system: K562
LOX IMVI = system: LOX IMVI
M14 = system: M14
MDA-MB-435 = system: MDA-MB-435
NCI-H460 = system: NCI-H460
NCI-H522 = system: NCI-H522
NCI/ADR-RES = system: NCI/ADR-RES
OVCAR-5 = system: OVCAR-5
RXF 393 = system: RXF 393
SK-MEL-28 = system: SK-MEL-28
T47D = system: T47D
UACC-257 = system: UACC-257
HL-60 = system: HL-60

Measured: GI50

CCCCCCCCCC(=O)OCC1(CO)C/C(=C/CC(C(C)C)C(C)C)C(=O)O1 (stereo unspecified)
84.5 µM: HCT-15
inactive: ACHN 71.1 µM | BT-549 > 100 µM | HT-29 31.6 µM | Hs-578T 27 µM | IGROV-1 37.7 µM | K562 18.3 µM | LOX IMVI 21.6 µM | M14 51.2 µM | MDA-MB-435 31.6 µM | NCI-H460 23.5 µM | NCI-H522 19.4 µM | NCI/ADR-RES > 100 µM | OVCAR-5 64.9 µM | RXF 393 > 100 µM | SK-MEL-28 71.3 µM | T47D 58.3 µM | UACC-257 > 100 µM

Cc1ccccc1N/C(=C(/C(Cl)=C(Cl)Cl)[N+](=O)[O-])n1nnc2ccccc21
15.4 µM: HCT-15
inactive: ACHN 29.2 µM | BT-549 14.1 µM | HT-29 19.4 µM | Hs-578T 11.6 µM | K562 21.1 µM | M14 24.5 µM | MDA-MB-435 16.5 µM | NCI-H460 14.2 µM | NCI/ADR-RES 18.2 µM | OVCAR-5 16.8 µM | SK-MEL-28 17 µM | T47D 21 µM | UACC-257 28.9 µM

CCN(CC)C(=O)Cn1c2ccccc2[n+]2cc(N)ccc12
> 100 µM: HCT-15
inactive: ACHN > 100 µM | BT-549 > 100 µM | HL-60 > 100 µM | HT-29 > 100 µM | Hs-578T > 100 µM | IGROV-1 > 100 µM | K562 > 100 µM | LOX IMVI > 100 µM | M14 > 100 µM | MDA-MB-435 > 100 µM | NCI-H460 > 100 µM | NCI/ADR-RES > 100 µM | OVCAR-5 > 100 µM | RXF 393 > 100 µM | SK-MEL-28 > 100 µM | T47D > 100 µM | UACC-257 > 100 µM

COC(=O)Nc1nc(=O)c2ccccc2[nH]1
inactive: ACHN > 100 µM | BT-549 > 100 µM | HL-60 > 100 µM | HT-29 > 100 µM | Hs-578T 76.7 µM | IGROV-1 > 100 µM | K562 31.1 µM | M14 > 100 µM | NCI-H460 > 100 µM | NCI-H522 50.1 µM | NCI/ADR-RES > 100 µM | OVCAR-5 > 100 µM | RXF 393 36.8 µM | SK-MEL-28 > 100 µM | T47D > 100 µM | UACC-257 > 100 µM
> 100 µM: HCT-15

Brc1ccc(/N=N/c2ccc3ccccc3n2)cc1
inactive: ACHN 13.5 µM | BT-549 14.5 µM | HL-60 18.7 µM | HT-29 47.4 µM | Hs-578T 18 µM | IGROV-1 21.4 µM | M14 > 100 µM | MDA-MB-435 64.3 µM | NCI-H460 7.5 µM | NCI/ADR-RES 33.3 µM | OVCAR-5 64.9 µM | RXF 393 28.2 µM | T47D 22.2 µM | UACC-257 82.8 µM
active: NCI-H522 0.0372 µM
35.3 µM: HCT-15

O=C(Nc1ccc(Cl)cc1)c1cc2c(cc1Cl)SC(NNCCO)=NS2(=O)=O
inactive: ACHN > 100 µM | BT-549 > 100 µM | HL-60 > 100 µM | HT-29 > 100 µM | Hs-578T > 100 µM | IGROV-1 > 100 µM | K562 27.9 µM | LOX IMVI > 100 µM | M14 > 100 µM | MDA-MB-435 > 100 µM | NCI-H460 > 100 µM | NCI/ADR-RES > 100 µM | RXF 393 > 100 µM | SK-MEL-28 > 100 µM | T47D 24.8 µM | UACC-257 > 100 µM
> 100 µM: HCT-15

COc1cc2c(cc1OC)C(N)CC2=O (stereo unspecified)
inactive: ACHN > 100 µM | BT-549 > 100 µM | HT-29 > 100 µM | Hs-578T > 100 µM | IGROV-1 > 100 µM | K562 > 100 µM | LOX IMVI > 100 µM | M14 > 100 µM | MDA-MB-435 > 100 µM | NCI-H522 > 100 µM | NCI/ADR-RES > 100 µM | OVCAR-5 > 100 µM | RXF 393 > 100 µM | SK-MEL-28 > 100 µM | T47D > 100 µM | UACC-257 > 100 µM
> 100 µM: HCT-15

OCC1OC(n2cnc3c(Cl)nc(Nc4ccccc4)nc32)CC1O (stereo unspecified)
20.8 µM: HCT-15
inactive: ACHN 17.3 µM | BT-549 35.6 µM | HT-29 > 100 µM | Hs-578T 35.2 µM | IGROV-1 25.4 µM | K562 32.7 µM | LOX IMVI 19.2 µM | M14 60.1 µM | MDA-MB-435 60.1 µM | NCI-H460 49.9 µM | NCI-H522 5.2 µM | NCI/ADR-RES > 100 µM | OVCAR-5 > 100 µM | RXF 393 57.1 µM | T47D > 100 µM | UACC-257 59.3 µM

CC1=NOC2(C1)/C(=N/O)CCC/C2=N\O (stereo unspecified)
> 100 µM: HCT-15
inactive: ACHN > 100 µM | BT-549 > 100 µM | HT-29 > 100 µM | Hs-578T > 100 µM | IGROV-1 > 100 µM | K562 > 100 µM | LOX IMVI > 100 µM | M14 > 100 µM | MDA-MB-435 > 100 µM | NCI-H460 > 100 µM | NCI-H522 > 100 µM | NCI/ADR-RES > 100 µM | OVCAR-5 > 100 µM | RXF 393 3.39 µM | SK-MEL-28 > 100 µM | T47D > 100 µM | UACC-257 > 100 µM

Cc1cn(C2CC(Br)C(COC(c3ccccc3)(c3ccccc3)c3ccccc3)O2)c(=O)[nH]c1=O (stereo unspecified)
inactive: ACHN 13.8 µM | BT-549 12 µM | HL-60 4.76 µM | HT-29 10.9 µM | Hs-578T 14.6 µM | IGROV-1 14.2 µM | K562 7.98 µM | LOX IMVI 11.9 µM | M14 13.2 µM | MDA-MB-435 14.7 µM | NCI-H522 7.24 µM | NCI/ADR-RES 13.7 µM | OVCAR-5 16.6 µM | RXF 393 11.2 µM | SK-MEL-28 16.7 µM | T47D 12.3 µM | UACC-257 16.1 µM

CN(C)CCCN1c2ccccc2CCc2ccc([N+](=O)[O-])cc21
26.9 µM: HCT-15
inactive: ACHN 34.6 µM | BT-549 27.9 µM | HL-60 19.8 µM | HT-29 19.1 µM | Hs-578T > 100 µM | IGROV-1 14.9 µM | K562 30.3 µM | LOX IMVI 16.1 µM | M14 15.4 µM | MDA-MB-435 17.9 µM | NCI-H460 19.5 µM | NCI-H522 17.5 µM | NCI/ADR-RES 19.1 µM | OVCAR-5 27.9 µM | SK-MEL-28 25.5 µM | T47D 16.5 µM | UACC-257 16.3 µM

Cc1c(-c2nc(N)c(C#N)c(N)c2C#N)c(=O)oc2ccccc12
80.7 µM: HCT-15
inactive: ACHN > 100 µM | BT-549 > 100 µM | HL-60 63.5 µM | HT-29 83 µM | Hs-578T > 100 µM | IGROV-1 9.46 µM | K562 59.4 µM | LOX IMVI 60.3 µM | M14 > 100 µM | MDA-MB-435 > 10 µM | NCI-H460 > 100 µM | NCI/ADR-RES > 100 µM | OVCAR-5 > 100 µM | RXF 393 > 100 µM | SK-MEL-28 > 100 µM | T47D 89.5 µM | UACC-257 > 100 µM

Cc1nc(N)c(N2CCN(C(=O)O)CC2)c(O)n1
inactive: ACHN > 100 µM | BT-549 > 100 µM | HL-60 > 100 µM | HT-29 > 100 µM | Hs-578T > 100 µM | K562 > 100 µM | LOX IMVI > 100 µM | M14 > 100 µM | MDA-MB-435 > 100 µM | NCI-H460 > 100 µM | NCI-H522 > 100 µM | NCI/ADR-RES > 100 µM | OVCAR-5 > 100 µM | SK-MEL-28 > 100 µM | T47D > 100 µM | UACC-257 > 100 µM
> 100 µM: HCT-15

Cc1n[nH]c(=O)c2c3c([nH]c12)-c1ccccc1C3
inactive: ACHN > 100 µM | BT-549 > 100 µM | HT-29 > 100 µM | Hs-578T > 100 µM | K562 > 100 µM | LOX IMVI > 100 µM | M14 > 100 µM | MDA-MB-435 > 100 µM | NCI-H460 > 100 µM | NCI-H522 > 100 µM | NCI/ADR-RES > 100 µM | OVCAR-5 > 100 µM | RXF 393 77.3 µM | SK-MEL-28 > 100 µM | T47D 23.5 µM | UACC-257 19.5 µM
> 100 µM: HCT-15
active: IGROV-1 0.0716 µM

COc1ccc(/C=C/C(=O)N[C@@H]2C(=O)N3[C@@H]2SC(C)(C)[C@@H]3C(=O)O)cc1
inactive: ACHN > 100 µM | BT-549 > 100 µM | HL-60 > 100 µM | HT-29 > 100 µM | Hs-578T > 100 µM | K562 > 100 µM | LOX IMVI > 100 µM | M14 > 100 µM | MDA-MB-435 > 100 µM | NCI-H460 > 100 µM | NCI-H522 69.2 µM | NCI/ADR-RES > 100 µM | OVCAR-5 > 100 µM | RXF 393 > 100 µM | SK-MEL-28 > 100 µM | T47D > 100 µM | UACC-257 > 100 µM
> 100 µM: HCT-15

O=c1c(Cc2ccccc2)c(-c2ccccc2)[nH]n1C1=NCCN1
7.74 µM: HCT-15
inactive: ACHN 29.3 µM | BT-549 > 100 µM | HL-60 15.1 µM | HT-29 24.2 µM | Hs-578T 39.4 µM | IGROV-1 36.5 µM | K562 53.5 µM | LOX IMVI 15.5 µM | M14 25.3 µM | MDA-MB-435 24.8 µM | NCI-H460 16.9 µM | NCI-H522 40.5 µM | NCI/ADR-RES 27.7 µM | OVCAR-5 72.6 µM | RXF 393 92.9 µM | T47D 45.3 µM | UACC-257 52.6 µM
